Paper PMC12396291, “DNA-encoded library screening uncovers potent DNMT2 inhibitors targeting a cryptic allosteric binding site” (iScience, 2025)

What was measured:
DNMT2 [1] = target: T1, DNMT2 (Homo sapiens, UniProt O14717); experiment: MST displacement assay with fluorescent FTAD probe; type: binding; design: Fnorm (MST screening): unit not given here; settings: for Fnorm (% displ.): FTAD displacement / Fnorm (MST screening): ligand 100 μM, FTAD probe
T1 construct: Recombinant human DNMT2 (full-length); His-tag; made in house; host or cells: E. coli
T1 sequence (O14717 1-391): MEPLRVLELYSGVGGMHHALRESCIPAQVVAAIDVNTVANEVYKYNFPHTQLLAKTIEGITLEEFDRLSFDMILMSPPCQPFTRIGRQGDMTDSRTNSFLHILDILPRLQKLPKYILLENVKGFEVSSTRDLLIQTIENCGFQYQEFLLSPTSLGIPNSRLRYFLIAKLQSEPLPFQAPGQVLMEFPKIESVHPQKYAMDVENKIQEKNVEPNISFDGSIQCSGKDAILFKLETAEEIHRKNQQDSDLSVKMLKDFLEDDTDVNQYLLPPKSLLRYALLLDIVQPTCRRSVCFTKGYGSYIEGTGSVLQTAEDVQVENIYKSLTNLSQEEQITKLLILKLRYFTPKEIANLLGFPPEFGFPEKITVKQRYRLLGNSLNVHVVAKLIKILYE
Method: Screening for ligand binding and evaluation of dose-response affinity profiles was performed via microscale thermophoresis (MST) as described previously.[42] The measurements were conducted with a Nanotemper Technologies Monolith NT.115 device. All samples were measured in Monolith standard capillaries at 25 °C. The acquisition mode was set to “Nano-Blue” with an excitation power of 30% and a medium MST power, while the system was controlled using the software MO.Control (version 1.6.1) and for evaluation MO.Affinity Analysis (version 2.3) was used. The samples contained 2 μM DNMT2, 100 nM FTAD (5-FAM-triazolyl-adenosyl-Dab) probe, and 1.3% DMSO in MST buffer (50 mM HEPES, 150 mM NaCl, 1 mM dithiothreitol (DTT), 0.1% PEG-8000, 0.05% polysorbate-20, pH 7.4).[42] All compounds were employed at a final concentration of 100 μM for the initial ligand screening.

DNMT2 [2] = target: T1, DNMT2; experiment: ^3H-based methyltransferase enzyme activity assay (^3H-SAM incorporation into tRNA^Asp); type: biochemical
Method: Enzymatic DNMT2 inhibition assays were carried out in 100 mM Tris-HCl, pH 8.0, 100 mM NH4OAc, 0.1 mM EDTA, 10 mM MgCl2, and 10 mM DTT as described previously.[3]^,[4] First, the tRNA^Asp substrate was heated to 75 °C for 5 min and cooled down to room temperature (RT) before it was added to the reaction mixture to a final concentration of 5 μM. The reaction mixture contained 250 nM DNMT2 and the ligand compounds at variable concentrations (5% DMSO). Enzymatic reactions were started by the addition of 0.9 μM SAM as a mixture of ^3H-SAM (Hartmann Analytics) resp. cold SAM (NEB) to a final activity of 0.025 μCi μL^−1. Enzyme assays were carried out for 30 min at 37 °C. As a negative control served the reaction mixture without DNMT2 and as a positive control the reaction mixture without test compound. After 30 min, aliquots of 8 μL were taken from the reaction mixture and spotted on Whatman glass microfiber filters (GF/C, 25 mm). The RNA was precipitated on the filters with 5% ice-cold TCA for 15 min. […] Scintillation was measured with a scintillation counter (TriCarb Liquid Scintillation Analyzer 4810 TR; measurement time of 1 min). For IC50-value determination, compounds were analyzed at a minimum of six different concentrations in triplicates. IC50-values were calculated, evaluated, and plotted in GraphPad Prism 8.0.1.

DNMT2 [3] = target: T1, DNMT2; experiment: Isothermal titration calorimetry (ITC), direct titration; type: binding; settings: direct titration at 25 °C; n.b. = no enthalpy signal observable
Method: The DNMT2 protein was purified via size exclusion chromatography eluting in isothermal titration calorimetry (ITC) buffer (50 mM sodium phosphate pH 8.0, 300 mM NaCl, 1 mM EDTA, 2 mM β-mercaptoethanol, 0.1% polysorbate-20) and directly used for measurements.[3] All compounds were dissolved in DMSO to a concentration of 5 mM and were then diluted in ITC buffer to a final concentration of 500 μM. DNMT2 was diluted to a final concentration of 50 μM with 10% DMSO to match the ligand stocks' DMSO concentration. For the ITC measurements, a MicroCal PEAQ-ITC Automated workstation (Malvern Panalytical) with a 200 μL Hastelloy cell and an injection syringe volume of 40 μL was used. All experiments were performed in triplicates at 25 °C unless otherwise noted. For each measurement, 19 compound injections (2 μL each) with an injection speed of 0.5 μL/s were added to the reaction cell containing DNMT2. The spacing time between sequential injections was 300 s, and the stirring speed was set to 750 rpm with a reference power of 42 μW. As control experiments, ligands were titrated into ITC buffer. Data analysis and fitting were carried out using the MicroCal PEAQ-ITC Analysis Software 1.21 and plotted in GraphPad Prism 8.0.1.

DNMT2 [4] = target: T1, DNMT2; experiment: Fluorescence polarization (FP) assay with probe 6; type: binding
Method: (§1) Fluorescence polarization (FP) measurements with RNA MTases and small-molecule fluorescent tracers were conducted in black Greiner 96-well half-area plates using a Tecan Spark 10M plate reader as described previously.[44] The reader was equipped with polarization filters coupled to a monochromator setup (λex = 480 nm, λem = 530 nm). For selectivity screening, reaction mixtures contained varying concentrations of recombinant enzyme (DNMT1, DNMT2, DNMT3A/3L, NSUN2, NSUN3, or NSUN6; preparation see below) and 10 nM DEL hit-derived probe 6 in MST buffer. For displacement experiments, 100 μM SAH or 10 μM tRNA^Asp were added from buffered stock solutions to the DNMT2-containing mixtures. All measurements were performed as triplicates. Polarization values (in mP) were calculated from polarization-specific parallel and orthogonal fluorescence intensities according to the Tecan in-built calculation routine. KD-values were calculated and plotted in GraphPad Prism 8.0.1.

NSUN6 = target: T2, NSUN6 (Homo sapiens, UniProt Q8TEA1); experiment: FP selectivity assay with probe 6; type: binding; settings: enzyme concentrations up to 20 μM
T2 construct: made in house; host or cells: E. coli
T2 sequence (Q8TEA1 1-469): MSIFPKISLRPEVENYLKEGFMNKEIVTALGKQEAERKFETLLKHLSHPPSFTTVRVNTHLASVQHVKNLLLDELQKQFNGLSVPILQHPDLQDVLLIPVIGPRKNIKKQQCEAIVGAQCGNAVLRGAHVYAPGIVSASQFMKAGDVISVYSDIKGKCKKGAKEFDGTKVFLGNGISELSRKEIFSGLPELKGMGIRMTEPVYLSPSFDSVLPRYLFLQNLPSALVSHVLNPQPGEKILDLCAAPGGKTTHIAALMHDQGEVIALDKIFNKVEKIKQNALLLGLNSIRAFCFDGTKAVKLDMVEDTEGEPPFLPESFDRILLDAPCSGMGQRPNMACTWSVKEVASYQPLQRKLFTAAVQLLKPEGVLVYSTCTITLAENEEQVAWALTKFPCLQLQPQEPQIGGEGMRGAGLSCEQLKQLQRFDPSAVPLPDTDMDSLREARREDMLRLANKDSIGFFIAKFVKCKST
Method: as §1

NSUN3 = target: T3, NSUN3 (Homo sapiens, UniProt Q9H649); experiment: FP selectivity assay with probe 6; type: binding; settings: enzyme concentrations up to 20 μM
T3 construct: made in house
T3 sequence (Q9H649 1-340): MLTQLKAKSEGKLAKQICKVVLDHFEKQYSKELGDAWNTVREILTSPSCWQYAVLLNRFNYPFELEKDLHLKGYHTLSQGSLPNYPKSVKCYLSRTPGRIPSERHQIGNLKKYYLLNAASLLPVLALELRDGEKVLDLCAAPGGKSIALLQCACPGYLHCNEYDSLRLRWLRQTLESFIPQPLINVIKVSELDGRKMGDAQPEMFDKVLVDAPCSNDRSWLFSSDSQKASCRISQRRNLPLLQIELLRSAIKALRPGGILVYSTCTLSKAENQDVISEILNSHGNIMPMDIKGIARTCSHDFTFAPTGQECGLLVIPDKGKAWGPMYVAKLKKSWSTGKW
Method: as §1

NSUN2 = target: T4, NSUN2 (Homo sapiens, UniProt Q08J23); experiment: FP selectivity assay with probe 6; type: binding; settings: enzyme concentrations up to 20 μM
T4 construct: made in house; host or cells: E. coli
T4 sequence (Q08J23 whole entry): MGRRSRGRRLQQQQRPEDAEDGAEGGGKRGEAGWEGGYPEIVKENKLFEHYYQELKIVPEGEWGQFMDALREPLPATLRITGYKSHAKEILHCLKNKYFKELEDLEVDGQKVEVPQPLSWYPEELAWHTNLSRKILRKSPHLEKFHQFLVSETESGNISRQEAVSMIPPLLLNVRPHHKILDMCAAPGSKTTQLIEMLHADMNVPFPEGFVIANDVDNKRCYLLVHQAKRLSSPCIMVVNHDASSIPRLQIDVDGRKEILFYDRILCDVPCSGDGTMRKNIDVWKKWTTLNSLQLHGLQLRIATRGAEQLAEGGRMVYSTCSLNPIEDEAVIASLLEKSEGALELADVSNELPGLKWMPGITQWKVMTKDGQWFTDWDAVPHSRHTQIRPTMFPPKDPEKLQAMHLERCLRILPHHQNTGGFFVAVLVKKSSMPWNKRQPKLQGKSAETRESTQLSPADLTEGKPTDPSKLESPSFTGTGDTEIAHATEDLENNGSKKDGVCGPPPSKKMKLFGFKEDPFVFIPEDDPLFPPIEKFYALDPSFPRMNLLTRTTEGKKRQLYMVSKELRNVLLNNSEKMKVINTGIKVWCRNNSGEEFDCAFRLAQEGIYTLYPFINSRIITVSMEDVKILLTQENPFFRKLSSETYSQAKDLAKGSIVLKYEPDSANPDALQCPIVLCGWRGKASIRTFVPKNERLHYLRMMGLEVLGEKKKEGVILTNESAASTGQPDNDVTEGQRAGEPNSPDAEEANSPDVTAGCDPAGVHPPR
Method: as §1

DNMT1 = target: T5, DNMT1 (Homo sapiens, UniProt P26358); experiment: FP selectivity assay with probe 6; type: binding; settings: enzyme concentrations up to 20 μM
T5 construct: purchased ActiveMotif 31404
T5 sequence (P26358 whole entry): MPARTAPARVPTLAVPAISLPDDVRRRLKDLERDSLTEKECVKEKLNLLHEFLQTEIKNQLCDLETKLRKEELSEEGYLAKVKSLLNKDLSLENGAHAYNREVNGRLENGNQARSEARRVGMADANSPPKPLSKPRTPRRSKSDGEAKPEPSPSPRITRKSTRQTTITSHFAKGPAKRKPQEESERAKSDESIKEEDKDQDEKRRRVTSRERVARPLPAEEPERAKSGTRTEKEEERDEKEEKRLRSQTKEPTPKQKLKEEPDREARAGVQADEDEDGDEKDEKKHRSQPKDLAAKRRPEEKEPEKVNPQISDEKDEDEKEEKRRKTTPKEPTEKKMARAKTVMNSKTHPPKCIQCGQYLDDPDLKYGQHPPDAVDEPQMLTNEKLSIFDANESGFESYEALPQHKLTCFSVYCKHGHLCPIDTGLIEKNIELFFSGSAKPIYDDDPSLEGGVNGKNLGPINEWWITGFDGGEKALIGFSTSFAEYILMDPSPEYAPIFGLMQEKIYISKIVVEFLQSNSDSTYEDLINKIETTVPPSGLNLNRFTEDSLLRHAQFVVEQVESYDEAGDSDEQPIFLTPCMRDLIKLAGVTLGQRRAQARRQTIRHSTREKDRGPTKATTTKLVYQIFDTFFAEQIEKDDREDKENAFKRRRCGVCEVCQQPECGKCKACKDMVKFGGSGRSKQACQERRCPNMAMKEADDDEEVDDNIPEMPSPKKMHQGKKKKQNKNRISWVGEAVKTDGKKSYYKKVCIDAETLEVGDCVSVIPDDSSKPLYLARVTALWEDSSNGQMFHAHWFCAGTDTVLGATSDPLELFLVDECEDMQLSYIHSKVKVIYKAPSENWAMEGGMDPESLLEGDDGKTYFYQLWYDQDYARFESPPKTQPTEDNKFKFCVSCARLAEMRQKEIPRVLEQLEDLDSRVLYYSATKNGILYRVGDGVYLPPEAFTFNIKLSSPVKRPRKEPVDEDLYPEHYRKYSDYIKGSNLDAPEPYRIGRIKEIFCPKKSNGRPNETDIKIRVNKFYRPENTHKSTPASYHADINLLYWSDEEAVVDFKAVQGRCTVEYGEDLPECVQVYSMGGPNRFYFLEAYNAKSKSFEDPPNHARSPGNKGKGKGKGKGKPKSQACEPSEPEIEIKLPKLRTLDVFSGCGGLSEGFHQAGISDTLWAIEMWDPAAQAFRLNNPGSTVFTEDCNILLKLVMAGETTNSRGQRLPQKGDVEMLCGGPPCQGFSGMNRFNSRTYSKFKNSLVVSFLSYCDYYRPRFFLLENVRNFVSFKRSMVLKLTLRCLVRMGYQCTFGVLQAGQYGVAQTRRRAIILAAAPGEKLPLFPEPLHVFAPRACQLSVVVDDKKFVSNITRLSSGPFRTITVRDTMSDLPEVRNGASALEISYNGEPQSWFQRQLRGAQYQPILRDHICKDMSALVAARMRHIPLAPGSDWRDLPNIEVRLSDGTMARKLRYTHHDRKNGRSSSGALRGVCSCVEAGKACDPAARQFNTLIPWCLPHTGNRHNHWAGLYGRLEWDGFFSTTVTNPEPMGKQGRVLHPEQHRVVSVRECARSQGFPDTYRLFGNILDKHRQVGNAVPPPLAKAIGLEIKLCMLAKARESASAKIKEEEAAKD
Method: as §1

DNMT2 [5] = target: T1, DNMT2; experiment: MST with DEL hit-derived fluorescent tracers 6-8, DNMT2 varied; settings: probe 100 nM instead of FTAD, read-out: probe binding affinity (MST, apparent KD)
DNMT3A/3L = target: T6, DNMT3A/3L (UniProt Q9CWR8+Q9Y6K1); experiment: FP selectivity assay with probe 6; type: binding, human; settings: enzyme concentrations up to 20 μM
T6 construct: made in house; host or cells: E. coli
Method: as §1

[6] = test system: tRNA modifications (m^5C) in MOLM-13 cells; experiment: LC-MS/MS tRNA modification analysis of treated cells; type: cell-based, human; settings: 72 h; for m^5C reduction in tRNA: relative to DMSO
[7] = Parallel artificial membrane permeation assay (PAMPA); type: in vitro ADME; settings: 7 h incubation, duplicates
Method: To determine the passive permeability of selected DNMT2 ligands, a parallel artificial membrane permeation assay (PAMPA) was performed as described previously.[68] The experiment was performed in duplicates with Sigma-Aldrich MAIPNTR10 donor plates with 5 μL of an artificial membrane (1% w/v L-α-phosphatidylcholine in n-dodecane) per well. After incubation for 7 h, the acceptor solutions were evaluated by LC/MS (HP Agilent 1100 Series). The peak areas in the UV chromatogram (λ = 210 nm) were used to calculate the areas under the curve (AUCs).

[8] = test system: MOLM-13, Huh-7 and MDA-MB-231 cells; experiment: Cell viability assay, pre-cultivation with compound then doxorubicin; type: cell-based, human; settings: for susceptibility to subsequent doxorubicin treatment (synergy): compound 50 μM, then doxorubicin
Method: Cell viability assays were conducted with MOLM-13 cells, Huh-7, MDA-MB-231, HEK293, and HCT MTase mutant cell lines (WT, knock-down DNMT2, and knock-down NSUN2) to investigate the DNMT2 inhibiting compounds’ cellular effect. Cells were cultured according to standard protocols: MOLM-13 (RPMI, 10% FBS, 1x Penicillin/Streptomycin, 37 °C, 5% CO2), Huh-7/MDA-MB-231/HEK293 (DMEM, 10% FBS, 1x Penicillin/Streptomycin, 37 °C, 5% CO2) and HCT (McCoys’s 5A Medium, 10% FBS, L-Glutamine, 1x Penicillin/Streptomycin, 37 °C, 5% CO2). Cell viability was assessed using Promega Cell Titer Glo assay kit (MOLM-13, Huh-7, MDA-MB-231, HEK293) or Lonza ViaLight Plus Cell Proliferation and Cytotoxicity BioAssay Kit (HCT cell lines). […] Then, the cell titer reagent was added to each well according to the manufacturer’s protocols, and luminescence was measured using a Tecan Spark 10M plate reader (MOLM-13, Huh-7, MDA-MB-231, HEK293) or Molecular Devices FlexStation (HCT cell lines).

## CNC(=O)C(NC(=O)C(Cc1c[nH]c2cc(Cl)ccc12)NC(=O)C(CO)NCC(C)Cc1ccc2c(c1)OCO2)C1CCCCC1 (stereo not shown) [Compound 4]
DNMT2 [1]; DEL hits, result in words
  FTAD displacement in the MST assay: did not lead to FTAD displacement
DNMT2 [1]; FTAD probe 100 nM, 2 μM DNMT2, n.b. = no thermophoresis shift observable
  Kd: 105000 ± 9000 nM
DNMT2 [2]
  IC50: 44400 ± 12900 nM
DNMT2 [3]
  ITC (KD): n.b.

## CCc1ccc(C(=O)NCC2(C(=O)N[C@H](CC(=O)NCC(=O)NCCCCCCNC(=O)c3ccc(-c4c5ccc(=N)c(S(=O)(=O)O)c-5oc5c(S(=O)(=O)O)c(N)ccc45)c(C(=O)O)c3)Cc3ccccc3)CC2)cc1 [Compound 6]
DNMT2 [4]; probe 6 with DNMT2 (enzyme-free buffer 5 mP)
  fluorescence polarization of probe-DNMT2 complex: 220 mP
NSUN6
  probe binding to NSUN6 (FP): does not bind
NSUN3
  probe binding to NSUN3 (FP): does not bind
NSUN2
  probe binding to NSUN2 (FP): does not bind
DNMT1
  probe binding to DNMT1 (FP): does not bind
DNMT2 [5]
  Kd: 1650 nM
DNMT3A/3L
  probe binding to DNMT3A/3L (FP): does not bind

## Cc1cccc(N(C)c2nc(N[C@H](C(=O)NCCCCCCNC(=O)CCCCC[N+]3=C(/C=C/C=C/C=C4/N(C)c5ccccc5C4(C)C)C(C)(C)c4ccccc43)[C@@H](C)OC(C)(C)C)nc(N3CCN(c4c(C)cccc4C)CC3)n2)c1 [Compound 7]
DNMT2 [5]
  Kd: 1360 nM

## CCc1ccc(C(=O)NCC2(C(=O)N[C@H](CC(=O)NCC(=O)NCCCCCCNC(=O)c3ccc(-c4c5ccc(=[N+](C)C)cc-5oc5cc(N(C)C)ccc45)c(C(=O)O)c3)Cc3c[nH]c4ccccc34)CC2)cc1 [Compound 8]
DNMT2 [5]
  Kd: 700 nM

## CCc1ccc(C(=O)NCC2(C(=O)NC(CC(=O)NCC(N)=O)Cc3ccc(Cl)cc3)CC2)cc1 (stereo not shown) [Compound 16]
[6]; MOLM-13, 5 μM
  change in RNA modifications: too low to stimulate any significant change in RNA modifications
[6]; MOLM-13, 50 μM
  changes of other (non-m^5C) tRNA modifications: only minor other modification changes were observed
  m^5C reduction in tRNA: ~25%
[7]
  Papp (PAMPA): ~ 0.30 10^−6 cm/s
[7]; PAMPA
  Papp at 7 h: 0.3 ×10⁻⁶ cm/s
[8]; 50 μM, two passages of three days each
  cellular viability after cultivation with compound alone: no observable reduction in cellular viability
[8]
  susceptibility to subsequent doxorubicin treatment (synergy): made the cells more susceptible to the subsequent treatment with doxorubicin

## CCc1ccc(C(=O)NCC2(C(=O)N[C@H](Cc3c[nH]c4ccccc34)C(=O)NCC(N)=O)CC2)cc1 [Compound 30]
DNMT2 [1]
  Fnorm (% displ.): FTAD displacement: 5%
  Fnorm (MST screening): 861.5
DNMT2 [3]
  ITC (KD): n.b.

## CCc1ccc(C(=O)NCC2(C(=O)NC(CC(=O)NCC(N)=O)Cc3ccc(C#N)cc3)CC2)cc1 (stereo not shown) [Compound 34]
[6]; MOLM-13, 50 μM
  m^5C reduction in tRNA: no reduction of m^5C in tRNA
[8]
  susceptibility to subsequent doxorubicin treatment (synergy): did not lead to a synergistic reduction in viability
DNMT2 [1]
  Fnorm (% displ.): FTAD displacement: 13%
  Fnorm (MST screening): 879.4

## Nc1ncnc2c1ncn2[C@@H]1O[C@H](CSCC[C@H](N)C(=O)O)[C@@H](O)[C@H]1O [SAH, S-adenosylhomocysteine, reference compound]
DNMT2 [4]; SAH 100 μM or tRNA^Asp 10 μM added to DNMT2 2 μM
  displacement of probe 6 from DNMT2 (FP): able to displace probe 6
